Experimental data reported in ChEMBL document CHEMBL5726327, “Kinase inhibitors” (2017).

Molecular target: Glycogen synthase kinase-3 alpha (Homo sapiens, UniProt P49840)
Assay: Enzyme Inhibition Assay: The inhibitory activities of compounds of the invention against the GSK 3α enzyme isoform (Invitrogen), are evaluated by determining the level of activation/phosphorylation of the target peptide. The GSK3-α protein (500 ng/mL, 2.5 μL) is mixed with the test compound (2.5 μL at either 4 μg/mL, 0.4 μg/mL, 0.04 μg/mL, or 0.004 μg/mL) for 2 hr at RT. The FRET peptide (8 μM, 2.5 μL), which is a phosphorylation target for GSK3α, and ATP (40 μM, 2.5 μL) are then added to the enzyme/compound mixture and the resulting mixture incubated for 1 hr. Development reagent (protease, 5 μL) is added for 1 hr prior to detection in a fluorescence microplate reader (Varioskan® Flash, ThermoFisher Scientific).In all cases, the site-specific protease cleaves non-phosphorylated peptide only and eliminates the FRET signal. Phosphorylation levels of each reaction are calculated using the ratio of coumarin emission (donor) over fluorescein emission (acceptor), for which high ratios indicate […] phosphorylation levels.

Sequence of Glycogen synthase kinase-3 alpha (P49840 whole entry, canonical isoform): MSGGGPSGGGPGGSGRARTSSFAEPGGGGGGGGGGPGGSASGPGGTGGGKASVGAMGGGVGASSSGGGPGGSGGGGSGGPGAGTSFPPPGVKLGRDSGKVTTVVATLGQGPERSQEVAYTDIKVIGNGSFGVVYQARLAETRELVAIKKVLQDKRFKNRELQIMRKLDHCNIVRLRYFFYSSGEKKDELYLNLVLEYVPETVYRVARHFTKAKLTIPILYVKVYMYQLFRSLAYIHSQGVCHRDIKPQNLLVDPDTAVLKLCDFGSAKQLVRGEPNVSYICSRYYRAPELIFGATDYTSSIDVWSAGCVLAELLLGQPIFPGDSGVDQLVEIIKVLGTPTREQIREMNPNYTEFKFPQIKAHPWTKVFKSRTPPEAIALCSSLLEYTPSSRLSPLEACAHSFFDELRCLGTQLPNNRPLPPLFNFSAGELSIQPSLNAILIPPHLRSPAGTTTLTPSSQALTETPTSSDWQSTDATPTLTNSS

Compound | IC50 [nM]
COc1cc(N=S(C)(C)=O)cc(Nc2nccc(Oc3ccc(NC(=O)Nc4cc(C(C)C)nn4-c4ccc(C)cc4)c4ccccc34)n2)c1 | 824
COc1cc(Nc2nccc(Oc3ccc(NC(=O)Nc4cc(C(C)(C)C)nn4-c4ccc(C)cc4)c(Cl)c3Cl)n2)cc(S(=O)(=O)C2CC2)c1 | > 10000
